Measurements: patent publication US8697877B2, “Oxyindole derivatives with motilin receptor agonistic activity” (RaQualia Pharma Inc., priority 2009, dated 2014)
Read-outs that look alike come from different tables or passages of the source.

Molecular target: T1, human motilin receptor (GPR38) (Homo sapiens, UniProt O43193)
T1 construct: expressed in transfected cells; host or cells: CHO-K1
Experiment: GPR38 (Motilin Receptor) Functional Assay, NFAT-beta-lactamase reporter in CHO-K1 cells
Type: cell-based
Experimental: The potencies and efficacies of the compounds of this invention for GPR38 can be determined by reporter assay performed on the human cloned receptor as described herein.
GPR38 (Motilin Receptor) Functional Assay
A CHO-K1 cell line stably transfected NFAT-beta-lactamase reporter and human motilin receptor gene was used. The cells were cultured in culture medium (Dulbecco's modified eagle medium containing 10% fetal bovine serum, 1 mM sodium pyruvate, 0.1 mM MEM nonessential amino acids, 25 mM HEPES buffer, 50 units/mL penicillin, 50 microg/mL streptomycin, 100 microg/mL zeocin, and 500 microg/mL G418). The cells were harvested with 0.05% trypsin EDTA and centrifuged. The cell pellets were resuspended in the culture medium and plated into a black/clear bottom 384-well plate at a density of 8000 cells per well, then incubated at 37° C. with 5% CO2 for over night (about 20 hours). On the day of assay, the culture medium was aspirated and 20 microL of assay medium (Dulbecco's modified eagle medium containing 100 units/mL penicillin and 100 microg/mL streptomycin) was added to each well, then the cell plates were placed in incubator at 37° C. with 5% CO2 for 1.5 hours. Compounds were prepared in 100% DMSO and these were diluted to 5× of final concentration with assay buffer (Hanks balanced salt solution, 20 mM HEPES, and 0.1% BSA), then dispensed into 384-well plate (5 microL/well). After incubation at 37° C. with 5% CO2 for 4.5 hours, CCF4-AM loading solution (Invitrogen Corp.) was added to each well. After incubation for 2 hours at room temperature, fluorescence intensities were measured by using plate reader FDSS (Hamamatsu Photonics K. K.) with excitation 400 nm, emission 465 nm/540 nm. Agonistic activity (EC50) was calculated from the sigmoidal dose-response curve using GraphPad Prism software (GraphPad Software, Inc.).

T1 sequence (O43193 whole entry): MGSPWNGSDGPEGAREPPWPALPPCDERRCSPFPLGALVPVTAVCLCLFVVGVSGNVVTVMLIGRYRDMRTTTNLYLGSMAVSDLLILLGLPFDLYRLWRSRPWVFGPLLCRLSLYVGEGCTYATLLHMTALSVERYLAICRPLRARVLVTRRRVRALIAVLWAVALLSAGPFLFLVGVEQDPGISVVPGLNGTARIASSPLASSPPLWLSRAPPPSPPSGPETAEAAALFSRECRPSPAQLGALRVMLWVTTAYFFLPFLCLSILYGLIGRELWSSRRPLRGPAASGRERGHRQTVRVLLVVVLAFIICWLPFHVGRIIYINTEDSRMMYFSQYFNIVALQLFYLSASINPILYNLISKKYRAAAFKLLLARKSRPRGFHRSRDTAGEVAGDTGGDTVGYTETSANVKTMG

SMILES: CC1(C)C(=O)N(C2CCN(C(=O)[C@H](CCc3ccccc3)NC(=O)[C@@H]3CCCNC3)CC2)c2ccccc21 [Example 1, (R)—N—((S)-1-(4-(3,3-dimethyl-2-oxoindolin-1-yl)piperidin-1-yl)-1-oxo-4-phenylbutan-2-yl)piperidine-3-carboxamide]
- EC50: ≤ 10 nM
- EC50 (ED50 (nM), Table 15, functional activity toward GPR38 (motilin receptor), (S) versus (R) amino acid linker): 0.24 nM

SMILES: CC1(C)C(=O)N(C2CCN(C(=O)[C@H](CCc3ccccc3)NC(=O)[C@@H]3CCCCN3)CC2)c2ccccc21 [Example 2, (S)-N-((S)-1-(4-(3,3-dimethyl-2-oxoindolin-1-yl)piperidin-1-yl)-1-oxo-4-phenylbutan-2-yl)piperidine-2-carboxamide]
- EC50: ≤ 10 nM

SMILES: CC1(C)C(=O)N(C2CCN(C(=O)[C@H](CCc3ccccc3)NC(=O)[C@@H](N)C(C)(C)C)CC2)c2ccccc21 [Example 3, (S)-2-amino-N-((S)-1-(4-(3,3-dimethyl-2-oxoindolin-1-yl)piperidin-1-yl)-1-oxo-4-phenylbutan-2-yl)-3,3-dimethylbutanamide]
- EC50: ≤ 10 nM

SMILES: CC1(C)C(=O)N(C2CCN(C(=O)[C@H](CCc3ccccc3)NC(=O)CC3(N)CCC3)CC2)c2ccccc21 [Example 6, (S)-2-(1-aminocyclobutyl)-N-(1-(4-(3,3-dimethyl-2-oxoindolin-1-yl)piperidin-1-yl)-1-oxo-4-phenylbutan-2-yl)acetamide]
- EC50: ≤ 10 nM

SMILES: CC1(C)C(=O)N(C2CCN(C(=O)[C@H](CCc3ccccc3)NC(=O)C3(CN)CC3)CC2)c2ccccc21 [Example 7, (S)-1-(aminomethyl)-N-(1-(4-(3,3-dimethyl-2-oxoindolin-1-yl)piperidin-1-yl)-1-oxo-4-phenylbutan-2-yl)cyclopropanecarboxamide]
- EC50: ≤ 10 nM

SMILES: CC1(C)C(=O)N(C2CCN(C(=O)[C@H](CCc3ccccc3)NC(=O)C3CNC3)CC2)c2ccccc21 [Example 9, (S)-N-(1-(4-(3,3-dimethyl-2-oxoindolin-1-yl)piperidin-1-yl)-1-oxo-4-phenylbutan-2-yl)azetidine-3-carboxamide]
- EC50: ≤ 10 nM

SMILES: CC1(C)C(=O)N(C2CCN(C(=O)[C@H](CCc3ccccc3)NC(=O)C3CCNCC3)CC2)c2ccccc21 [Example 10, (S)-N-(1-(4-(3,3-dimethyl-2-oxoindolin-1-yl)piperidin-1-yl)-1-oxo-4-phenylbutan-2-yl)piperidine-4-carboxamide]
- EC50: ≤ 10 nM

SMILES: CC1(C)C(=O)N(C2CCN(C(=O)[C@H](CCc3ccccc3)NC(=O)CC3(N)CCCC3)CC2)c2ccccc21 [Example 12, (S)-2-(1-aminocyclopentyl)-N-(1-(4-(3,3-dimethyl-2-oxoindolin-1-yl)piperidin-1-yl)-1-oxo-4-phenylbutan-2-yl)acetamide]
- EC50: ≤ 10 nM

SMILES: CNC(C)(C)CC(=O)N[C@@H](CCc1ccccc1)C(=O)N1CCC(N2C(=O)C(C)(C)c3ccccc32)CC1 [Example 13, (S)-N-(1-(4-(3,3-dimethyl-2-oxoindolin-1-yl)piperidln-1-yl)-1-oxo-4-phenylbutan-2-yl)-3-methyl-3-(methylamino) butanamide]
- EC50: ≤ 10 nM

SMILES: CC1(C)C(=O)N(C2CCN(C(=O)[C@H](CCc3ccccc3)NC(=O)CCNC3CCCC3)CC2)c2ccccc21 [Example 14, (S)-3-(cyclopentylamino)-N-(1-(4-(3,3-dimethyl-2-oxoindolin-1-yl)piperidin-1-yl)-1-oxo-4-phenylbutan-2-yl)propanamide]
- EC50: ≤ 10 nM

SMILES: COCCN(C)CCC(=O)N[C@@H](CCc1ccccc1)C(=O)N1CCC(N2C(=O)C(C)(C)c3ccccc32)CC1 [Example 15, (S)-N-(1-(4-(3,3-dimethyl-2-oxoindolin-1-yl)piperidin-1-yl)-1-oxo-4-phenylbutan-2-yl)-3-((2-methoxyethyl)(methyl)amino) propanamide]
- EC50: ≤ 10 nM

SMILES: CC1(C)C(=O)N(C2CCN(C(=O)[C@H](CCc3ccccc3)NC(=O)CN3CCCC3)CC2)c2ccccc21 [Example 17, (S)—N-(1-(4-(3,3-dimethyl-2-oxoindolin-1-yl)piperidin-1-yl)-1-oxo-4-phenylbutan-2-yl)-2-(pyrrolidin-1-yl)acetamide]
- EC50: ≤ 10 nM

SMILES: CN1CCC[C@@H](C(=O)N[C@@H](CCc2ccccc2)C(=O)N2CCC(N3C(=O)C(C)(C)c4ccccc43)CC2)C1 [Example 20, (R)—N—((S)-1-(4-(3,3-dimethyl-2-oxoindolin-1-yl)piperidin-1-yl)-1-oxo-4-phenylbutan-2-yl)-1-methylpiperidine-3-carboxamide]
- EC50: ≤ 10 nM

SMILES: CN[C@@H]1CC[C@H](C(=O)N[C@@H](Cc2ccc(Cl)cc2)C(=O)N2CCC(N3C(=O)C(C)(C)c4ccccc43)CC2)C1 [Example 21, (1S,3R)—N—((S)-3-(4-chlorophenyl)-1-(4-(3,3-dimethyl-2-oxoindolin-1-yl)piperidin-1-yl)-1-oxopropan-2-yl)-3-(methylamino)cyclopentanecarboxamide]
- EC50: ≤ 10 nM

SMILES: CN[C@@H]1CC[C@H](C(=O)N[C@@H](Cc2ccccc2C(F)(F)F)C(=O)N2CCC(N3C(=O)C(C)(C)c4ccccc43)CC2)C1 [Example 22, (1S,3R)-N-((S)-1-(4-(3,3-dimethyl-2-oxoindolin-1-yl)piperidin-1-yl)-1-oxo-3-(2-(trifluoromethyl)phenyl)propan-2-yl)-3-(methylamino)cyclopentane-carboxamide]
- EC50: ≤ 10 nM

SMILES: CN[C@@H]1CC[C@H](C(=O)N[C@@H](CC2CCCCC2)C(=O)N2CCC(N3C(=O)C(C)(C)c4ccccc43)CC2)C1 [Example 23, (1S,3R)-N-((S)-3-cyclohexyl-1-(4-(3,3-dimethyl-2-oxoindolin-1-yl)piperidin-1-yl)-1-oxopropan-2-yl)-3-(methyl-amino)cyclopentanecarboxamide]
- EC50: ≤ 10 nM

SMILES: CN[C@@H]1CC[C@H](C(=O)N[C@@H](Cc2cccc3ccccc23)C(=O)N2CCC(N3C(=O)C(C)(C)c4ccccc43)CC2)C1 [Example 24, (1S,3R)-N-((S)-1-(4-(3,3-dimethyl-2-oxoindolin-1-yl)piperidin-1-yl)-3-(naphthalen-1-yl)-1-oxopropan-2-yl)-3-(methylamino)cyclopentane-carboxamide]
- EC50: ≤ 10 nM

SMILES: CN[C@@H]1CC[C@H](C(=O)N[C@@H](Cc2ccccc2Cl)C(=O)N2CCC(N3C(=O)C(C)(C)c4ccccc43)CC2)C1 [Example 25, (1S,3R)-N-((S)-3-(2-chlorophenyl)-1-(4-(3,3-dimethyl-2-oxoindolin-1-yl)piperidin-1-yl)-1-oxopropan-2-yl)-3-(methylamino)cyclopentane-carboxamide]
- EC50: ≤ 10 nM

SMILES: CN[C@@H]1CC[C@H](C(=O)N[C@@H](Cc2ccccc2C)C(=O)N2CCC(N3C(=O)C(C)(C)c4ccccc43)CC2)C1 [Example 26, (1S,3R)-N-((S)-1-(4-(3,3-dimethyl-2-oxoindolin-1-yl)piperidin-1-yl)-1-oxo-3-o-tolylpropan-2-yl)-3-(methyl-amino)cyclopentanecarboxamide]
- EC50: ≤ 10 nM

SMILES: CN[C@@H]1CC[C@H](C(=O)N[C@@H](Cc2ccc(F)cc2)C(=O)N2CCC(N3C(=O)C(C)(C)c4ccccc43)CC2)C1 [Example 27, (1S,3R)-N-((S)-1-(4-(3,3-dimethyl-2-oxoindolin-1-yl)piperidin-1-yl)-3-(4-fluorophenyl)-1-oxopropan-2-yl)-3-(methylamino)cyclopentane-carboxamide]
- EC50: ≤ 10 nM
